Key:
Test in all cases: biochemical
Design in all cases: DiscoveRx KINOMEscan competition binding, percent of DMSO control signal at 100 nM
Conditions in all cases: read-out: Fig. 4a / Percent Control / Compound 1; percent of DMSO control, competition binding
[1] = biological target: MELK (Homo sapiens, UniProt Q14680)
[2] = biological target: T1, CDC2L1 (Homo sapiens, UniProt P21127)
T1 construct: gene CDK11B

[3] = biological target: IRAK3 (Homo sapiens, UniProt Q9Y616)
[4] = biological target: CDK9 (Homo sapiens, UniProt P50750)
[5] = biological target: NEK3 (Homo sapiens, UniProt P51956)
[6] = biological target: T2, p38-gamma (Homo sapiens, UniProt P53778)
T2 construct: gene MAPK12

[7] = biological target: AURKB (Homo sapiens, UniProt Q96GD4)
[8] = biological target: T3, PIP5K2C (Homo sapiens, UniProt Q8TBX8)
T3 construct: gene PIP4K2C

[9] = biological target: MAP4K5 (Homo sapiens, UniProt Q9Y4K4)
Sequence of MAP4K5 (Q9Y4K4 whole entry): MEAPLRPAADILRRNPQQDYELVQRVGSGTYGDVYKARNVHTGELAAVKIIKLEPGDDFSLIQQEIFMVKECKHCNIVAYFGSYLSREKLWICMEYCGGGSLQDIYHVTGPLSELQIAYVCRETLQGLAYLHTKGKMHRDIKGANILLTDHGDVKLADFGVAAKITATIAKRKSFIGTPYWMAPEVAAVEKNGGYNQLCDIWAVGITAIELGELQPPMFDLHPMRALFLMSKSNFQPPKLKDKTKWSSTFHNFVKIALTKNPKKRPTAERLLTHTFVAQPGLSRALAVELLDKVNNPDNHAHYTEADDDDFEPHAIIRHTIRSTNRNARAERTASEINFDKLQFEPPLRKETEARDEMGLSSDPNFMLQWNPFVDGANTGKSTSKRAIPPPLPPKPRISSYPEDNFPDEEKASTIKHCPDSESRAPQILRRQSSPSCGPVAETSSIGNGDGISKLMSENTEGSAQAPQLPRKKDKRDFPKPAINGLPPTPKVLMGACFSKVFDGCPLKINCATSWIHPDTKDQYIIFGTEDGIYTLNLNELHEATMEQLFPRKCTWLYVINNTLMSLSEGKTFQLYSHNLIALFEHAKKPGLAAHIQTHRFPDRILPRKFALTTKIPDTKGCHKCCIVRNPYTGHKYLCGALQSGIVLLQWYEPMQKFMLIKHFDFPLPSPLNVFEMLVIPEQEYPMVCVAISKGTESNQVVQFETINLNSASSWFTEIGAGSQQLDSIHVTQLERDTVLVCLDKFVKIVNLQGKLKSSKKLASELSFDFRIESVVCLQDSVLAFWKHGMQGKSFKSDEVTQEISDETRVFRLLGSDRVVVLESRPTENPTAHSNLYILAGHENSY

[10] = biological target: T4, NIM1 (Homo sapiens, UniProt Q8IY84)
T4 construct: gene NIM1K
T4 sequence (Q8IY84 whole entry): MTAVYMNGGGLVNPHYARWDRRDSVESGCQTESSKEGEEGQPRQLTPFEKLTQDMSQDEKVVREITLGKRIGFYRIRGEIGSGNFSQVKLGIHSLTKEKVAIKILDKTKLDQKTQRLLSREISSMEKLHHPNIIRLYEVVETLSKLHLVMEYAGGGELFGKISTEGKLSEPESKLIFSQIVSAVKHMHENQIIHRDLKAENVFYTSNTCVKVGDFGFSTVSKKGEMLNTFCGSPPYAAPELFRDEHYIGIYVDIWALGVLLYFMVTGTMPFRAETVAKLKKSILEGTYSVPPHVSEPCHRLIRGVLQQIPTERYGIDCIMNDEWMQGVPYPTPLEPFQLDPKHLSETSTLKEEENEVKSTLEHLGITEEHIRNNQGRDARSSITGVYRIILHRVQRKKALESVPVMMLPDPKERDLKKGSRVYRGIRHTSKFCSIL

[11] = biological target: T5, IKK-alpha (Homo sapiens, UniProt O15111)
T5 construct: gene CHUK
T5 sequence (O15111 whole entry): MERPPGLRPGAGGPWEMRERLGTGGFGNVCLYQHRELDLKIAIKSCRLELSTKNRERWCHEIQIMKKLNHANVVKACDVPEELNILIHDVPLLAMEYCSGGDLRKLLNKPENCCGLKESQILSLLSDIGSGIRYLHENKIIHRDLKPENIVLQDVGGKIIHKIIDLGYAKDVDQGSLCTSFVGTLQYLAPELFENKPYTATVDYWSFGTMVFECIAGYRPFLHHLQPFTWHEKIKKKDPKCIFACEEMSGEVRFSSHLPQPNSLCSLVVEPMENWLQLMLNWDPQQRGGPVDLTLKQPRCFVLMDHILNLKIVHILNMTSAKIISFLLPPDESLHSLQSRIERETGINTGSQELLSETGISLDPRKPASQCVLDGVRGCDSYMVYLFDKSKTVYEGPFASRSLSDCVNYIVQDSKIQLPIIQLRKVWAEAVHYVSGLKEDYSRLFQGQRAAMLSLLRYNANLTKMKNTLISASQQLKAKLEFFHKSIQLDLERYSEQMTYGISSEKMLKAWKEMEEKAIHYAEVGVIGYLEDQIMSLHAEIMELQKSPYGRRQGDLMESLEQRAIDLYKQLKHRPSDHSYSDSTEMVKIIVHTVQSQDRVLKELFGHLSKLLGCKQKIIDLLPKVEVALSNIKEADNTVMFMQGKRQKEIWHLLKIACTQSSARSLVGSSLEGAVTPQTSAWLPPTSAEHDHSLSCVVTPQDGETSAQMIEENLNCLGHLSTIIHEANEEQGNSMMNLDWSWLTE

[12] = biological target: TAOK2 (Homo sapiens, UniProt Q9UL54)
[13] = biological target: WNK1 (Homo sapiens, UniProt Q9H4A3)
[14] = biological target: CSNK1A1L (Homo sapiens, UniProt Q8N752)
[15] = biological target: FER (Homo sapiens, UniProt P16591)
[16] = biological target: CDKL3 (Homo sapiens, UniProt Q8IVW4)
[17] = biological target: T6, MEK5 (Homo sapiens, UniProt Q13163)
T6 construct: gene MAP2K5
T6 sequence (Q13163 whole entry): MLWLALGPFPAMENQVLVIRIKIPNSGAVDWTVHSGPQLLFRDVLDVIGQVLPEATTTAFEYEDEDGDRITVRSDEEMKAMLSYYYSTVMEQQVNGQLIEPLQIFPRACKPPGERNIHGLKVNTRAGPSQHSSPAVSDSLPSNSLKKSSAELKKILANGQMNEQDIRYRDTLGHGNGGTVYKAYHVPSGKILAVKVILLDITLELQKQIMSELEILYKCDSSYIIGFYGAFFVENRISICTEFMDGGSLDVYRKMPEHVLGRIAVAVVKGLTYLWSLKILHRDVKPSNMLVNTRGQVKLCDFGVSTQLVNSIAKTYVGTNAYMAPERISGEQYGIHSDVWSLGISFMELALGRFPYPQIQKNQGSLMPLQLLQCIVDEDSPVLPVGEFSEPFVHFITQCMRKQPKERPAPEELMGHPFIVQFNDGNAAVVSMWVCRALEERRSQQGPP

[18] = biological target: T7, MEK6 (Homo sapiens, UniProt P52564)
T7 construct: gene MAP2K6
T7 sequence (P52564 whole entry): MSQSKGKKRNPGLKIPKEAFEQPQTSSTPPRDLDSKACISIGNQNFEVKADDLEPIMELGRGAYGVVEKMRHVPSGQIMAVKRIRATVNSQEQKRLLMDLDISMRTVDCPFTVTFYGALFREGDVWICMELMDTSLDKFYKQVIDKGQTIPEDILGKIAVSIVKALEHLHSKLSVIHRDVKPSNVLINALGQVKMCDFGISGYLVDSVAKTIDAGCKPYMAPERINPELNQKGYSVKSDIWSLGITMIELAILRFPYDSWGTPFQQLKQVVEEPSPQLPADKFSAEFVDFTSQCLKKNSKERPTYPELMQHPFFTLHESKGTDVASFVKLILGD

[19] = biological target: MAPKAPK2 (Homo sapiens, UniProt P49137)
[20] = biological target: RIOK1 (Homo sapiens, UniProt Q9BRS2)
[21] = biological target: PIM1 (Homo sapiens, UniProt P11309)
Sequence of PIM1 (P11309 whole entry): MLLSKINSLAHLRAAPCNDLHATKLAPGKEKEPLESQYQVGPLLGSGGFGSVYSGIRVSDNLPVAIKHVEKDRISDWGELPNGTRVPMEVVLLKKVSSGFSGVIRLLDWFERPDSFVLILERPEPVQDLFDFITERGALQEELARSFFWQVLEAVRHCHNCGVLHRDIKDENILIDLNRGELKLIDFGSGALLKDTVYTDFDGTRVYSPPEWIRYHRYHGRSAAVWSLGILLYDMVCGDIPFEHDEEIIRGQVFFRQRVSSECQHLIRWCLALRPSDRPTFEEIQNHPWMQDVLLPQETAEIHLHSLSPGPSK

[22] = biological target: T8, SIK (Homo sapiens, UniProt P57059)
T8 construct: gene SIK1

[23] = biological target: T9, ADCK3 (Homo sapiens, UniProt Q8NI60)
T9 construct: gene COQ8A
T9 sequence (Q8NI60 whole entry): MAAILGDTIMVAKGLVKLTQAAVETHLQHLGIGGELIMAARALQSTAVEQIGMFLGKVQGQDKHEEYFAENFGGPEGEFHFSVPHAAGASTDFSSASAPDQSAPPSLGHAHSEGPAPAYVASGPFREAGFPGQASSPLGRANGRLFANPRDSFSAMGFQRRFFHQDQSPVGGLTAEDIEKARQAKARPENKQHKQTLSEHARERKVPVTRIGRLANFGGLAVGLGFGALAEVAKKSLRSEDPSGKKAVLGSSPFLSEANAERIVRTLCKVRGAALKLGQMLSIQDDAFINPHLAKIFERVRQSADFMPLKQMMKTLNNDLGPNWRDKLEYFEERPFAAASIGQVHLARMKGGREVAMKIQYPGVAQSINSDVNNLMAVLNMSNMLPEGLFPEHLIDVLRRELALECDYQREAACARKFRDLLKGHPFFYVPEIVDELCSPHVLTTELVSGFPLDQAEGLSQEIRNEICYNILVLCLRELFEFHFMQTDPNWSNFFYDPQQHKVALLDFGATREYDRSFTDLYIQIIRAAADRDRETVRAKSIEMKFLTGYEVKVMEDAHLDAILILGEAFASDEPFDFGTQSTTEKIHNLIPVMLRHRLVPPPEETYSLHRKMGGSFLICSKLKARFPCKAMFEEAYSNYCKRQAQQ

[24] = biological target: GRK2 (Homo sapiens, UniProt P25098)
[25] = biological target: T10, VEGFR2 (Homo sapiens, UniProt P35968)
T10 construct: gene KDR
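Note: KINOMEscan kinase panel binding assay, signal normalized between DMSO as 100% and a positive control compound as 0%.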

Sequence of MELK (Q14680 whole entry): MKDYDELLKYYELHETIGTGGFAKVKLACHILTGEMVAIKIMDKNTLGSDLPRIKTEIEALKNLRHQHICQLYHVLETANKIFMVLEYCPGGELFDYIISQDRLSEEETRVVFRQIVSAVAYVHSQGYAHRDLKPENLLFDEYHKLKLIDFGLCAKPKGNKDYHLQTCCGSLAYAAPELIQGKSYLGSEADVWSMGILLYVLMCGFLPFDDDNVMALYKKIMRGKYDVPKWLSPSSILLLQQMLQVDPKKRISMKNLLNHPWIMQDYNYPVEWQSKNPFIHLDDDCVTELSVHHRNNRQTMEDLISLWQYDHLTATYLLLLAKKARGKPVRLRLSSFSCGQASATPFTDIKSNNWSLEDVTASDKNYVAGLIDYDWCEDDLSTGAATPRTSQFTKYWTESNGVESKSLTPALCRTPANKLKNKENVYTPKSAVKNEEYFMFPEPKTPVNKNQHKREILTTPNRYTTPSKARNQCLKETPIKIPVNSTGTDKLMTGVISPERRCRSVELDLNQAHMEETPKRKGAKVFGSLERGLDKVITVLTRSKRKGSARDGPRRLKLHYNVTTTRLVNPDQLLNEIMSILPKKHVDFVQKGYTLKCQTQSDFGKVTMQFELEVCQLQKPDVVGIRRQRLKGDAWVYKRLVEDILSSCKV
Sequence of IRAK3 (Q9Y616 whole entry): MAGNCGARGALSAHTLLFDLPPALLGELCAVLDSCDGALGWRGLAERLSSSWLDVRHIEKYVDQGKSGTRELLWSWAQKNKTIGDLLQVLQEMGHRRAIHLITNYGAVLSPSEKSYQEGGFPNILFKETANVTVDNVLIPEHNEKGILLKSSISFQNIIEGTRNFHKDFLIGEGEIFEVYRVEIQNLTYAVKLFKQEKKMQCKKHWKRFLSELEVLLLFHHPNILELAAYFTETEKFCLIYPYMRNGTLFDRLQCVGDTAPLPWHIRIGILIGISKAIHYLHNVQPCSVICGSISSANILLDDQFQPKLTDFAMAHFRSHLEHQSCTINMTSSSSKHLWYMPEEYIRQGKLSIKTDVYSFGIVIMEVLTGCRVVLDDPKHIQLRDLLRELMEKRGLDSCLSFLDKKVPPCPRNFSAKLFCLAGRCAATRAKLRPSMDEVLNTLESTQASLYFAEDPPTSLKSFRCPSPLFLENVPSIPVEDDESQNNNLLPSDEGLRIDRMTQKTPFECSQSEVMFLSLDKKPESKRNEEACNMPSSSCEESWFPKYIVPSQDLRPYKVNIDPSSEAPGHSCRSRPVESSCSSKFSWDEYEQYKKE

Cc1cnc2nc1Nc1cccc(c1)COCc1cc(ccc1OCCN1CCCC1)N2 [Compound 1]
remaining binding at 0.1 µM [1]: 100% | remaining binding at 0.1 µM [2]: 96% | remaining binding at 0.1 µM [3]: 53% | remaining binding at 0.1 µM [4]: 99% | remaining binding at 0.1 µM [5]: 90% | remaining binding at 0.1 µM [6]: 100% | remaining binding at 0.1 µM [7]: 82% | remaining binding at 0.1 µM [8]: 76% | remaining binding at 0.1 µM [9]: 98% | remaining binding at 0.1 µM [10]: 99% | remaining binding at 0.1 µM [11]: 96% | remaining binding at 0.1 µM [12]: 63% | remaining binding at 0.1 µM [13]: 90% | remaining binding at 0.1 µM [14]: 61% | remaining binding at 0.1 µM [15]: 87% | remaining binding at 0.1 µM [16]: 77% | remaining binding at 0.1 µM [17]: 22% | remaining binding at 0.1 µM [18]: 100% | remaining binding at 0.1 µM [19]: 100% | remaining binding at 0.1 µM [20]: 75% | remaining binding at 0.1 µM [21]: 100% | remaining binding at 0.1 µM [22]: 100% | remaining binding at 0.1 µM [23]: 96% | remaining binding at 0.1 µM [24]: 90% | remaining binding at 0.1 µM [25]: 63%

— article PMC10382584, “Macrocyclization of linear molecules by deep learning to facilitate macrocyclic drug candidates discovery” (Nature Communications, 2023)
